Measured values reported in US4578489A (priority 1982, dated 1986).
Read-outs that look alike come from different tables or passages of the source.

What was measured:
Pseudomonas aeruginosa = assay: Minimum inhibitory concentration against bacteria, strain B; format: cell-based; settings: 24 hours at 30° C.; tested at 100 and 300 mg/liter
Procedure: (§1) Overnight cultures, grown in Caso peptone bouillon (Merck) of the various strains of bacteria: (A) Proteus vulgaris, (B) Pseudomonas aeruginosa, (C) Enterobacter aerogenes, (D) Serratia marcencens, (E) Alcaligenes denitrificans and (F) Bacillus subtilis are each diluted in a ratio of 1/1000 in saline solution. Sufficient of the suspensions is put into Caso peptone bouillon to dilute the bacteria again in the ratio of 1/1000. Each of the compounds listed in Table 1 is then added in amounts of 100 and 300 mg/liter. After being incubated for 24 hours at 30° C. in a shaking waterbath, the turbidity of the samples is evaluated.

Endomyces geotrichum = assay: Minimum inhibitory concentration against fungi, agar incorporation test, strain Q; format: cell-based; settings: malt extract/agar
How it was run: (§2)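 Growth inhibition read visually on agar plates spotted with trace fungal inoculum. Each compound was mixed into malt extract agar to give final levels of 2–100 mg/liter (2, 5, 10, 50, 100), and the MIC was recorded in mg/liter.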

Bacillus subtilis = assay: Minimum inhibitory concentration against bacteria, strain F; format: cell-based; settings: 24 hours at 30° C.; tested at 100 and 300 mg/liter
Procedure: as §1

Enterobacter aerogenes = assay: Minimum inhibitory concentration against bacteria, strain C; format: cell-based; settings: 24 hours at 30° C.; tested at 100 and 300 mg/liter
Procedure: as §1

Aspergillus niger = assay: Minimum inhibitory concentration against fungi, agar incorporation test, strain K; format: cell-based; settings: malt extract/agar
How it was run: as §2

Alternaria alternata = assay: Minimum inhibitory concentration against fungi, agar incorporation test, strain N; format: cell-based; settings: malt extract/agar
How it was run: as §2

[1] = system: Enteromorpha intestinalis; assay: Action against Enteromorpha intestinalis: destruction (minimum killing concentration); format: in vivo; settings: 4 hours in seawater, then 6-8 weeks in fresh seawater
Procedure: (§3) The action against the green alga Enteromorpha, which is the most important in seawter fouling, is investigated in sterile-filtered seawater containing an Erd-Schreiber solution. This solution is composed of a nutrient extract, phosphate and nitrate. The incubation of Enteromorpha intestinalis is carried out in a light thermostat at 18° C. under an alternation of 14 hours of light and 10 hours of darkness.
The algae which have been cultured in this way are exposed to the products under investigation for a short time (4 hours) in seawater. The minimum killing concentration (MKC) is determined by taking the algae out of the seawater containing a specific quantity of algicide, after the treatment time in the latter, washing the algae and investigating growth or mortality after incubation in fresh seawater for a further period of 6-8 weeks.
The minimum killing concentration (MKC) indicates the amount of substance required to cause such damage to the algae within a specific time that they can no longer recover in fresh seawater and die out.

Proteus vulgaris = assay: Minimum inhibitory concentration against bacteria, strain A; format: cell-based; settings: 24 hours at 30° C.; tested at 100 and 300 mg/liter
Procedure: as §1

Penicillium funiculosum = assay: Minimum inhibitory concentration against fungi, agar incorporation test, strain M; format: cell-based; settings: malt extract/agar
How it was run: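 Compounds incorporated into malt extract agar at final 2, 5, 10, 50 and 100 mg/liter, then inoculated dropwise with fungus. Value is the concentration (mg/liter) inhibiting growth.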

[2] = system: Cladosporium cladosporioides; assay: Minimum inhibitory concentration against fungi, agar incorporation test, strain O; format: cell-based; settings: malt extract/agar
How it was run: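 Compounds incorporated into malt extract agar at final concentrations of 2, 5, 10, 50 and 100 mg/liter, with fungal traces added dropwise. Value is the concentration (mg/liter) required to inhibit fungal growth.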

Serratia marcencens = assay: Minimum inhibitory concentration against bacteria, strain D; format: cell-based; settings: 24 hours at 30° C.; tested at 100 and 300 mg/liter
Procedure: as §1

Aureobasidium pullulans [3] = assay: Growth on wood; design: key: 1: growth on the wood; 2: slight growth on the wood; 3: no growth on the wood; 4: no growth on the wood and an inhibitory zone; settings: 28°, 4 weeks
Procedure: Small blocks of spruce wood, 7×10×10 mm in size, are dried in vacuo. The small blocks are then vacuum-impregnated by keeping them, in vacuo, in 100 ml of distilled water+biocide for 30 minutes and then subjecting them to a pressure treatment (2 atmospheres gauge by means of compressed air) for 18 hours in the water. The pieces of wood treated in this way are first subjected to leaching in running water and are then dried.
The dried pieces of wood are placed on potato/glucose agar and the wood, as well as the surrounding agar, is inoculated with 0.1 ml of a spore suspension of Aureobasidium pullulans. After incubation at 28° for 4 weeks, the growth is evaluated in accordance with the following rating: […]

Artemia salina = assay: Action against Artemia salina nauplii; format: in vivo; design: key: 0: no change; 1: slight change; 1-2: animals are attacked; 2: animals are strongly attacked; 2-3: animals are nearly all dead; 3: animals are all dead
Procedure: The eggs, which are available commercially, are caused to hatch by vigorous aeration. When 2-3 days old, the nauplii are exposed to the products at various concentrations (concentrations tested: 2.5; 1; 0.5 and 0.25 mg/liter) in synthetic seawater, and are observed over a prolonged period of time.

Aureobasidium pullulans [4] = assay: Minimum inhibitory concentration against fungi, agar incorporation test, strain R; format: cell-based; settings: malt extract/agar
How it was run: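 Compounds incorporated in malt extract agar at final 2, 5, 10, 50 and 100 mg/liter. Agar inoculated dropwise with traces of fungus. Value is the concentration (mg/liter) needed to inhibit growth.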

[5] = system: mixed culture of bacteria; format: cell-based; design: key: +: growth, no destruction; (+): growth less than that of control (>10 colonies), slight destruction; (-): slight growth (1-10 colonies); -: no growth, destruction
[6] = system: Enteromorpha intestinalis; assay: Action against Enteromorpha intestinalis: inhibitory concentration (MIC); format: in vivo; settings: seawater containing biocide for entire test; concentration tested 0.5 mg/liter
Procedure: as §3
For determining the inhibitory concentration (MIC), the algae are kept in seawater containing biocide for the entire duration of the test (concentration tested: 0.5 mg/liter).

Chlorella vulgaris = assay: Action against algae: Chlorella vulgaris; format: cell-based; design: key: --: no growth on the agar, 3 ppm have destroyed the algae in 6 hours; settings: 3 mg/liter; for Growth on the agar (algae-destroying action): 6 hours exposure, 14 days incubation; for Growth in the medium (growth inhibition): 14 days
How it was run: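 14-day cultures diluted 1/200 in nutrient medium received compound at 3 mg/liter final. After 6 h, samples were spotted on algae/agar for algicidal action; growth inhibition in medium and killing on agar assessed visually after 14 days under 14 h light/10 h dark.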

Chaetomium globosum = assay: Minimum inhibitory concentration against fungi, agar incorporation test, strain S; format: cell-based; settings: malt extract/agar
How it was run: as §2

Aspergillus phoenicis = assay: Minimum inhibitory concentration against fungi, agar incorporation test, strain L; format: cell-based; settings: malt extract/agar
How it was run: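 Agar incorporation test in malt extract agar with compound at final 2, 5, 10, 50 and 100 mg/liter, inoculated dropwise with fungus; value is concentration (mg/liter) inhibiting growth.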

[7] = system: Alcaligenes denitrificans; assay: Minimum inhibitory concentration against bacteria, strain E; format: cell-based; settings: 24 hours at 30° C.; tested at 100 and 300 mg/liter
Procedure: as §1

Candida albicans = assay: Minimum inhibitory concentration against fungi, agar incorporation test, strain P; format: cell-based; settings: malt extract/agar
How it was run: as §2

[8] = 5 mg/l, culture diluted 1/1000 in Tyrode
[9] = 5 mg/l, culture diluted 1/10000 in Tyrode
[10] = 10 mg/l, culture diluted 1/1000 in Tyrode
[11] = 10 mg/l, culture diluted 1/10000 in Tyrode
[12] = 30 mg/l, culture diluted 1/1000 in Tyrode
[13] = 30 mg/l, culture diluted 1/10000 in Tyrode
[14] = 60 mg/l, culture diluted 1/1000 in Tyrode
[15] = 60 mg/l, culture diluted 1/10000 in Tyrode
[16] = 100 mg/l, culture diluted 1/1000 in Tyrode
[17] = 100 mg/l, culture diluted 1/10000 in Tyrode

Compound: CCCCCCCCCCCC[n+]1ccccc1.CCC[CH2][Sn-]([Cl])([Cl])([CH2]CCC)[CH2]CCC [Example 6, Pyridine-Nlauryl / Tributyldichloro]
- MIC against bacteria, strain B (Pseudomonas aeruginosa): 100 µg/mL
- MIC against fungi, strain Q (Endomyces geotrichum): 5 µg/mL
- MIC against bacteria, strain F (Bacillus subtilis): 100 µg/mL
- MIC against bacteria, strain C (Enterobacter aerogenes): 100 µg/mL
- MIC against fungi, strain K (Aspergillus niger): 2 µg/mL
- MIC against fungi, strain N (Alternaria alternata): 2 µg/mL
- Destruction, 5 mg/liter [1]: yes
- MIC against bacteria, strain A (Proteus vulgaris): 100 µg/mL
- MIC against fungi, strain M (Penicillium funiculosum): 5 µg/mL
- MIC against fungi, strain O [2]: 2 µg/mL
- MIC against bacteria, strain D (Serratia marcencens): 100 µg/mL
- growth on wood, leached for 5 days (Aureobasidium pullulans [3]; 0.01 % in H2 O): 4
- growth on wood, not leached (Aureobasidium pullulans [3]; 0.01 % in H2 O): 4
- growth on wood, leached for 5 days (Aureobasidium pullulans [3]; 0.05 % in H2 O): 4
- growth on wood, not leached (Aureobasidium pullulans [3]; 0.05 % in H2 O): 4
- Action against Artemia salina (Artemia salina; 0,5 mg/l, 6 hours): 1-2
- Action against Artemia salina (Artemia salina; 0,5 mg/l, 24 hours): 2-3
- Action against Artemia salina (Artemia salina; 0,5 mg/l, 48 hours): 3
- Action against Artemia salina (Artemia salina; 0,25 mg/l, 6 hours): 1
- Action against Artemia salina (Artemia salina; 0,25 mg/l, 24 hours): 2
- Action against Artemia salina (Artemia salina; 0,25 mg/l, 48 hours): 2-3
- Action against Artemia salina (Artemia salina; 1 mg/l, 6 hours): 2
- Action against Artemia salina (Artemia salina; 1 mg/l, 24 hours): 3
- Action against Artemia salina (Artemia salina; 1 mg/l, 48 hours): 3
- Action against Artemia salina (Artemia salina; 2,5 mg/l, 6 hours): 2-3
- Action against Artemia salina (Artemia salina; 2,5 mg/l, 24 hours): 3
- Action against Artemia salina (Artemia salina; 2,5 mg/l, 48 hours): 3
- MIC against fungi, strain R (Aureobasidium pullulans [4]): 2 µg/mL
- Growth (destruction of a mixed culture of bacteria) [5, 8]: +
- Growth (destruction of a mixed culture of bacteria) [5, 9]: +
- Growth (destruction of a mixed culture of bacteria) [5, 10]: +
- Growth (destruction of a mixed culture of bacteria) [5, 11]: +
- Growth (destruction of a mixed culture of bacteria) [5, 12]: +
- Growth (destruction of a mixed culture of bacteria) [5, 13]: +
- Growth (destruction of a mixed culture of bacteria) [5, 14]: +
- Growth (destruction of a mixed culture of bacteria) [5, 15]: +
- Growth (destruction of a mixed culture of bacteria) [5, 16]: +
- Growth (destruction of a mixed culture of bacteria) [5, 17]: +
- MIC [6]: 0.5 µg/mL
- Growth on the agar (algae-destroying action) (Chlorella vulgaris): --
- Growth in the medium (growth inhibition) (Chlorella vulgaris): --
- MIC against fungi, strain S (Chaetomium globosum): 2 µg/mL
- MIC against fungi, strain L (Aspergillus phoenicis): 2 µg/mL
- MIC against bacteria, strain E [7]: 100 µg/mL
- MIC against fungi, strain P (Candida albicans): 5 µg/mL

Compound: CCCCCCCCCCCCCCCC[n+]1ccccc1.CCC[CH2][Sn-]([Cl])([Cl])([CH2]CCC)[CH2]CCC [Example 7, Pyridine-Nhexadecyl / Tributyldichloro]
- MIC against bacteria, strain B (Pseudomonas aeruginosa): 100 µg/mL
- MIC against fungi, strain Q (Endomyces geotrichum): 5 µg/mL
- MIC against bacteria, strain F (Bacillus subtilis): 100 µg/mL
- MIC against bacteria, strain C (Enterobacter aerogenes): 100 µg/mL
- MIC against fungi, strain K (Aspergillus niger): 2 µg/mL
- MIC against fungi, strain N (Alternaria alternata): 5 µg/mL
- Destruction, 5 mg/liter [1]: yes
- MIC against bacteria, strain A (Proteus vulgaris): 100 µg/mL
- MIC against fungi, strain M (Penicillium funiculosum): 10 µg/mL
- MIC against fungi, strain O [2]: 2 µg/mL
- MIC against bacteria, strain D (Serratia marcencens): 100 µg/mL
- Action against Artemia salina (Artemia salina; 0,5 mg/l, 6 hours): 1-2
- Action against Artemia salina (Artemia salina; 0,5 mg/l, 24 hours): 2
- Action against Artemia salina (Artemia salina; 0,5 mg/l, 48 hours): 3
- Action against Artemia salina (Artemia salina; 0,25 mg/l, 6 hours): 0-1
- Action against Artemia salina (Artemia salina; 0,25 mg/l, 24 hours): 2
- Action against Artemia salina (Artemia salina; 0,25 mg/l, 48 hours): 2-3
- Action against Artemia salina (Artemia salina; 1 mg/l, 6 hours): 2
- Action against Artemia salina (Artemia salina; 1 mg/l, 24 hours): 3
- Action against Artemia salina (Artemia salina; 1 mg/l, 48 hours): 3
- Action against Artemia salina (Artemia salina; 2,5 mg/l, 6 hours): 2-3
- Action against Artemia salina (Artemia salina; 2,5 mg/l, 24 hours): 3
- Action against Artemia salina (Artemia salina; 2,5 mg/l, 48 hours): 3
- MIC against fungi, strain R (Aureobasidium pullulans [4]): 2 µg/mL
- Growth (destruction of a mixed culture of bacteria) [5, 8]: +
- Growth (destruction of a mixed culture of bacteria) [5, 9]: +
- Growth (destruction of a mixed culture of bacteria) [5, 10]: +
- Growth (destruction of a mixed culture of bacteria) [5, 11]: (+) (growth less than that of control (>10 colonies), slight destruction)
- Growth (destruction of a mixed culture of bacteria) [5, 12]: (+) (growth less than that of control (>10 colonies), slight destruction)
- Growth (destruction of a mixed culture of bacteria) [5, 13]: (-) (slight growth (1-10 colonies))
- Growth (destruction of a mixed culture of bacteria) [5, 14]: -
- Growth (destruction of a mixed culture of bacteria) [5, 15]: -
- Growth (destruction of a mixed culture of bacteria) [5, 16]: -
- Growth (destruction of a mixed culture of bacteria) [5, 17]: -
- MIC [6]: 0.5 µg/mL
- Growth on the agar (algae-destroying action) (Chlorella vulgaris): --
- Growth in the medium (growth inhibition) (Chlorella vulgaris): --
- MIC against fungi, strain S (Chaetomium globosum): 2 µg/mL
- MIC against fungi, strain L (Aspergillus phoenicis): 10 µg/mL
- MIC against bacteria, strain E [7]: 100 µg/mL
- MIC against fungi, strain P (Candida albicans): 5 µg/mL
